Laboratory results: patent US10428083B2, “Heterocyclylmethyl-thienouracile as antagonists of the adenosine-A2B-receptor” (BAYER PHARMA AKTIENGESELLSCHAFT, priority 2015, dated 2019)

Molecular target: human adenosine A2b receptor (Homo sapiens (Human), UniProt P29275)
Experiment: Cellular in vitro reporter gene test for A2b receptor activity (CHO-K1, CRE-luciferase, NECA stimulation)
Assay type: cell-based
Details: recombinant CHO-K1 cell line, CRE-luciferase reporter, antagonism of EC50 concentration of NECA; in some cases means of several determinations, rounded to two significant figures; read-out: A2b receptor IC50
Summary of the method: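 CHO-K1 cells with CRE-driven luciferase; antagonists co-incubated with NECA at its EC50, determined in a pre-experiment on each test day. Luciferase read by luminescence 3 h after NECA addition.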

Sequence of human adenosine A2b receptor (P29275 whole entry): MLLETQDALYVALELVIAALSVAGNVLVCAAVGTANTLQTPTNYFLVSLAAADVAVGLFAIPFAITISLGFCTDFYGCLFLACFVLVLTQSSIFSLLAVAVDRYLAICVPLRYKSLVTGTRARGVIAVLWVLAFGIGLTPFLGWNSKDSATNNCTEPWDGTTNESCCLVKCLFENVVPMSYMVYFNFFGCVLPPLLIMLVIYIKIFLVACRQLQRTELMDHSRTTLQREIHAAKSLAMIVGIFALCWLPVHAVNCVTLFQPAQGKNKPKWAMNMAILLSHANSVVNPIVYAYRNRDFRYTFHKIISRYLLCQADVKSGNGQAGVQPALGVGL

C#CCn1c(=O)c2c(C)c(CN3CCNC3=O)sc2n(CCOC)c1=O [Example 315, 1-(2-Methoxyethyl)-5-methyl-6-[(2-oxoimidazolidin-1-yl)methyl]-3-(prop-2-yn-1-yl)thieno[2,3-d]pyrimidine-2,4(1H,3H)-dione]
IC50: 4.3 nM

CCn1c(=O)c2c(C)c(CN3CCNC3=NC(=O)OC)sc2n(CC2CCCO2)c1=O (single isomer, unassigned) [Example 375, Methyl [1-{[3-ethyl-5-methyl-2,4-dioxo-1-(tetrahydrofuran-2-ylmethyl)-1,2,3,4-tetrahydrothieno[2,3-d]pyrimidin-6-yl]methyl}imidazolidin-2-ylidene]carbamate]
IC50: 6.3 nM

COCCn1c(=O)n(CC(F)(F)F)c(=O)c2c(C)c(CN3CCNC3=S)sc21 [Example 41, 1-(2-Methoxyethyl)-5-methyl-6-[(2-thioxoimidazolidin-1-yl)methyl]-3-(2,2,2-trifluoroethyl)thieno[2,3-d]pyrimidine-2,4(1H,3H)-dione]
IC50: 12 nM

COCCn1c(=O)c2c(C)c(CN3CCNC3=NC(=O)OC)sc2n(CC2CCO2)c1=O (racemic) [Example 387, Methyl [1-{[3-(2-methoxyethyl)-5-methyl-1-(oxetan-2-ylmethyl)-2,4-dioxo-1,2,3,4-tetrahydrothieno[2,3-d]pyrimidin-6-yl]methyl}imidazolidin-2-ylidene]carbamate]
IC50: 96 nM

Cc1c(CN2CCNC2=NC#N)sc2c1c(=O)n(CC(F)(F)F)c(=O)n2CC1CCCO1 (single isomer, unassigned) [Example 360, [1-{[5-Methyl-2,4-dioxo-1-(tetrahydrofuran-2-ylmethyl)-3-(2,2,2-trifluoroethyl)-1,2,3,4-tetrahydrothieno[2,3-d]pyrimidin-6-yl]methyl}imidazolidin-2-ylidene]cyanamide]
IC50: 10 nM

CCCCn1c(=O)n(CC)c(=O)c2c(C)c(CN3CCNC3=O)sc21 [Example 78, 1-Butyl-3-ethyl-5-methyl-6-[(2-oxoimidazolidin-1-yl)methyl]thieno[2,3-d]pyrimidine-2,4(1H,3H)-dione]
IC50: 1.2 nM

Cc1c(CN2CCNC2=S)sc2c1c(=O)n(CC(F)(F)F)c(=O)n2C [Example 159, 1,5-Dimethyl-6-[(2-thioxoimidazolidin-1-yl)methyl]-3-(2,22-trifluoroethyl)thieno[2,3-d]pyrimidine-2,4(1H,3H)-dione]
IC50: 14 nM

Cc1c(CN2CCNC2=O)sc2c1c(=O)n(CC(F)F)c(=O)n2CC1CCO1 (racemic) [Example 216, 3-(2,2-Difluoroethyl)-5-methyl-1-(oxetan-2-ylmethyl)-6-[(2-oxoimidazolidin-1-yl)methyl]thieno[2,3-d]pyrimidine-2,4(1H,3H)-dione]
IC50: 34 nM

COCCn1c(=O)c2c(C)c(CN3CCNC3=O)sc2n(CCC(F)(F)F)c1=O [Example 229, 3-(2-Methoxyethyl)-5-methyl-6-[(2-oxoimidazolidin-1-yl)methyl]-1-(3,3,3-trifluoropropyl)thieno[2,3-d]pyrimidine-2,4(1H,3H)-dione]
IC50: 4 nM

CCn1c(=O)c2c(C)c(CN3CCNC3=NC(=O)OC)sc2n(CC2CCO2)c1=O (single isomer, unassigned) [Example 372, Methyl [1-{[3-ethyl-5-methyl-1-(oxetan-2-ylmethyl)-2,4-dioxo-1,2,3,4-tetrahydrothieno[2,3-d]pyrimidin-6-yl]methyl}imidazolidin-2-ylidene]carbamate]
IC50: 27 nM

CCn1c(=O)c2c(C)c(CN3CCNC3=O)sc2n(CC2CCCO2)c1=O (single isomer, unassigned; enantiomer 2) [Example 70, 3-Ethyl-5-methyl-6-[(2-oxoimidazolidin-1-yl)methyl]-1-(tetrahydrofuran-2-ylmethyl)thieno[2,3-d]pyrimidine-2,4(1H,3H)-dione (Enantiomer 2)]
IC50: 21 nM

Cc1c(CN2CCNC2=O)sc2c1c(=O)n(CC(F)F)c(=O)n2CC1CCO1 (single isomer, unassigned) [Example 217, 3-(2,2-Difluoroethyl)-5-methyl-1-(oxetan-2-ylmethyl)-6-[(2-oxoimidazolidin-1-yl)methyl]thieno[2,3-d]pyrimidine-2,4(1H,3H)-dione]
IC50: 79 nM

CCn1c(=O)c2c(C)c(CN3C(=O)OCC3(C)C)sc2n(CCC(F)(F)F)c1=O [Example 24, 6-[(4,4-Dimethyl-2-oxo-1,3-oxazolidin-3-yl)methyl]-3-ethyl-5-methyl-1-(3,3,3-trifluoropropyl)thieno[2,3-d]pyrimidine-2,4(1H,3H)-dione]
IC50: 8.8 nM

Cc1c(CN2CCNC2=O)sc2c1c(=O)n(CC(C)(C)F)c(=O)n2CCC(F)(F)F [Example 225, 3-(2-Fluoro-2-methylpropyl)-5-methyl-6-[(2-oxoimidazolidin-1-yl)methyl]-1-(3,3,3-trifluoropropyl)thieno[2,3-d]pyrimidine-2,4(1H,3H)-dione]
IC50: 12 nM

CCn1c(=O)c2c(C)c(CN3CCCS3(=O)=O)sc2n(CCOC)c1=O [Example 17, 6-[(1,1-Dioxido-1,2-thiazolidin-2-yl)methyl]-3-ethyl-1-(2-methoxyethyl)-5-methylthieno[2,3-d]pyrimidine-2,4(1H,3H)-dione]
IC50: 16 nM

CCn1c(=O)c2c(C)c(CN3CCNC3=S)sc2n(CCOC2CCCC2)c1=O [Example 293, 1-[2-(Cyclopentyloxy)ethyl]-3-ethyl-5-methyl-6-[(2-thioxoimidazolidin-1-yl)methyl]thieno[2,3-d]pyrimidine-2,4(1H,3H)-dione]
IC50: 120 nM

CCn1c(=O)c2c(C)c(CN3CCNC3=O)sc2n(CCS(C)(=O)=O)c1=O [Example 310, 3-Ethyl-5-methyl-1-[2-(methylsulphonyl)ethyl]-6-[(2-oxoimidazolidin-1-yl)methyl]thieno[2,3-d]pyrimidine-2,4(1H,3H)-dione]
IC50: 370 nM

COCCn1c(=O)n(CC(F)(F)F)c(=O)c2c(C)c(CN3CCNC3=NC(=O)OC)sc21 [Example 382, Methyl [1-{[1-(2-methoxyethyl)-5-methyl-2,4-dioxo-3-(2,2,2-trifluoroethyl)-1,2,3,4-tetrahydrothieno[2,3-d]pyrimidin-6-yl]methyl}imidazolidin-2-ylidene]carbamate]
IC50: 6.8 nM

Cc1c(CN2CCNC2=NC#N)sc2c1c(=O)n(CC(F)(F)F)c(=O)n2CC1CCO1 (single isomer, unassigned) [Example 449, [1-{[5-Methyl-1-(oxetan-2-ylmethyl)-2,4-dioxo-3-(2,2,2-trifluoroethyl)-1,2,3,4-tetrahydrothieno[2,3-d]pyrimidin-6-yl]methyl}imidazolidin-2-ylidene]cyanamide]
IC50: 54 nM

Cc1c(CN2CCNC(=O)C2=O)sc2c1c(=O)n(C(C)C)c(=O)n2CCC(F)(F)F [Example 478, 6-[(2,3-Dioxopiperazin-1-yl)methyl]-3-isopropyl-5-methyl-1-(3,3,3-trifluoropropyl)thieno[2,3-d]pyrimidine-2,4(1H,3H)-dione]
IC50: 41 nM

Cc1c(CN2CCNC2=S)sc2c1c(=O)n(CC(C)C)c(=O)n2CC1CCO1 (single isomer, unassigned) [Example 148, 3-Isobutyl-5-methyl-1-(oxetan-2-ylmethyl)-6-[(2-thioxoimidazolidin-1-yl)methyl]thieno[2,3-d]pyrimidine-2,4(1H,3H)-dione]
IC50: 4.1 nM

CCOCCn1c(=O)n(CC(F)(F)F)c(=O)c2c(C)c(CN3CCNC3=S)sc21 [Example 153, 1-(2-Ethoxyethyl)-5-methyl-6-[(2-thioxoimidazolidin-1-yl)methyl]-3-(2,2,2-trifluoroethyl)thieno[2,3-d]pyrimidine-2,4(1H,3H)-dione]
IC50: 6.4 nM

Cc1c(Cn2nc[nH]c2=O)sc2c1c(=O)n(C(C)C)c(=O)n2CC1CCCO1 (racemic) [Example 424, 3-Isopropyl-5-methyl-6-[(5-oxo-4,5-dihydro-1H-1,2,4-triazol-1-yl)methyl]-1-(tetrahydrofuran-2-ylmethyl)thieno[2,3-d]pyrimidine-2,4(1H,3H)-dione]
IC50: 88 nM

COCCn1c(=O)n(CC2CCCO2)c(=O)c2c(C)c(CN3CCNC3=O)sc21 (single isomer, unassigned) [Example 334, 1-(2-Methoxyethyl)-5-methyl-6-[(2-oxoimidazolidin-1-yl)methyl]-3-(tetrahydrofuran-2-ylmethyl)thieno[2,3-d]pyrimidine-2,4(1H,3H)-dione]
IC50: 120 nM

Cc1c(CN2CCNC2=O)sc2c1c(=O)n(CC(C)(C)C)c(=O)n2CCC(F)(F)F [Example 200, 3-(2,2-Dimethylpropyl)-5-methyl-6-[(2-oxoimidazolidin-1-yl)methyl]-1-(3,3,3-trifluoropropyl)thieno[2,3-d]pyrimidine-2,4(1H,3H)-dione]
IC50: 2.9 nM

CCOCCn1c(=O)c2c(C)c(CN3CCNC3=O)sc2n(CCCF)c1=O [Example 411, 3-(2-Ethoxyethyl)-1-(3-fluoropropyl)-5-methyl-6-[(2-oxoimidazolidin-1-yl)methyl]thieno[2,3-d]pyrimidine-2,4(1H,3H)-dione]
IC50: 53 nM

CCn1c(=O)c2c(C)c(CN3CCNC(=O)C3=O)sc2n(CCOC)c1=O [Example 120, 6-[(2,3-Dioxopiperazin-1-yl)methyl]-3-ethyl-1-(2-methoxyethyl)-5-methylthieno[2,3-d]pyrimidine-2,4(1H,3H)-dione]
IC50: 12 nM

COC(C)(C)Cn1c(=O)c2c(C)c(CN3CCNC(=O)C3=O)sc2n(CCC(F)(F)F)c1=O [Example 279, 6-[(2,3-Dioxopiperazin-1-yl)methyl]-3-(2-methoxy-2-methylpropyl)-5-methyl-1-(3,3,3-trifluoropropyl)thieno[2,3-d]pyrimidine-2,4(1H,3H)-dione]
IC50: 20 nM

CCn1c(=O)c2c(C)c(CN3CCNC3=O)sc2n(CC2CCOC2)c1=O (racemic) [Example 73, 3-Ethyl-5-methyl-6-[(2-oxoimidazolidin-1-yl)methyl]-1-(tetrahydrofuran-3-ylmethyl)thieno[2,3-d]pyrimidine-2,4(1H,3H)-dione (racemate)]
IC50: 79 nM
